From publication PMC4008422, “Cytotoxicity and activation of the Wnt/beta-catenin pathway in mouse embryonic stem cells treated with four GSK3 inhibitors” (BMC Research Notes, 2014)
Where two headings read alike, the source gives them in different places.

Legend:
ES-CCE cells = assay: Cell viability assay (MTT), ES-CCE; format: cell-based, mouse; settings: BIO 0.1-1 μM, others 1-10 μM, three days
Procedure: (§1) The medium was changed daily and the cells were passaged 2–3 times per week. […] A randomized control was performed with basal medium without growth factors and/or small molecules. Physiological activation of the Wnt/beta-catenin-pathway was tested in medium supplemented with 50 ng/ml Wnt3a.
(§2) The viability of the mouse ES cells was determined after exposure to different concentrations of GSK3 inhibitors for three days using the MTT assay. The decrease of MTT activity is a reliable metabolism-based test for quantifying cell viability; this decrease correlates with the loss of cell viability. 2,000 cells were seeded overnight on gelatine-coated 96-well plates in LIF-containing ES cell medium. […] Basal medium without GSK3 inhibitors or DMSO was used as control. All tested conditions were analyzed in triplicates.

Oct3/4 = assay: Immunofluorescence staining of Oct3/4 in ES-D3 cells; format: cell-based, mouse; settings: three day treatment
Procedure: (§3) Immunofluorescence was performed according to standard procedures. ES cells were treated on 6-well plates with different GSK3 inhibitors and after 48 h 100,000 cells were re-seeded in each cavity of Matrigel-coated glass slides (Zellkontakt, Nörten-Hardenberg, Germany). After 24 h in medium the cells were fixed in 4% (w/v) paraformaldehyde for 45 min at 4°C. Subsequently, the cells were blocked for 20 min in PBS plus 0.2% Triton X-100, 6% BSA, and 1 mg/ml NaBH4. Primary and secondary antibodies were diluted in PBS with 0.1% Triton X-100 and 0.1% BSA. Primary antibodies were incubated on the slides for 2.5 h at room temperature (RT) or overnight at 4°C. Secondary antibodies were incubated on the slides for 1 h at RT. The following primary antibodies were used: anti-Oct3/4 (sc-5279, Santa Cruz Biotechnology, Heidelberg, Germany) and anti-Brachyury (AF2085, R&D Systems, Minneapolis, MN, USA). Secondary antibodies were obtained from Dianova (Hamburg, Germany). Finally, the slides were mounted with immunoselect antifading mounting medium containing DAPI (Dianova) to counterstain the nuclei. The stained cells were examined using an Olympus IX81 inverted microscope (Olympus, Hamburg, Germany).

Wnt/beta-catenin pathway [1] = assay: Wnt/beta-catenin TOPFlash dual luciferase reporter assay, ES-D3; format: cell-based, mouse; settings: 48 and 72 h, vs control and 50 ng/ml Wnt3a
Procedure: (§4) The Wnt/beta-catenin reporter assay was performed with the M50 Super 8× TOPFlash and M51 Super 8× FOPFlash vector containing the firefly luciferase gene under the control of TCF/LEF binding sites (M50 Super 8x TOPFlash) or mutated bindings sites (M51 Super 8× FOPFlash). 12,500 cells were seeded overnight on gelatine-coated 96-well plates in LIF-containing ES cell medium. On the next day the cells were transfected using Lipofectamine (Life Technologies) with one of the aforementioned vectors plus pGL4.75 [hRluc/CMV] (Promega) encoding the renilla luciferase reporter gene hRluc as a transfection control. […] The Dual-Luciferase® reporter assay system (Promega) was employed 48 and 72 h after medium change to follow the luminescence reaction using a GloMax®-multi detection system (Promega).
(§5) To assess the activation of the Wnt/beta-catenin signaling pathway by GSK3i, a dual luciferase reporter assay was used (Figure 2A/B). Mouse ES cells were transfected with the M50 TOPflash firefly luciferase vector, comprising seven TCF/LEF binding sites or as a negative control with the M51 FOPflash vector harboring mutated binding sites. To normalize the transfection efficiency, a hRluc/CMV vector with a constitutive expression of the renilla luciferase was used. Mouse ES cells of both lines were incubated with GSK3 inhibitors with concentrations close to the IC50 values calculated for the ES-D3 cell line. Dual luciferase luminescence was measured 48 and 72 h after cultivation with one of the inhibitors.

Wnt/beta-catenin pathway [2] = assay: Wnt/beta-catenin TOPFlash dual luciferase reporter assay, ES-CCE; format: cell-based, mouse; settings: 48 and 72 h, vs random controls and 50 ng/ml Wnt3a
Procedure: as §4, §5

ES-D3 cells = assay: Cell viability assay (MTT), ES-D3; format: cell-based, mouse; settings: for viability reduced by: three days; for IC50: ES-D3 cells, three day treatment, medium devoid of LIF, reduced serum, read-out: IC50 (half maximal inhibitory concentration, cell viability)
Procedure: as §1, §2

T gene = assay: qPCR gene expression of T in ES-D3 cells; format: cell-based, mouse; settings: six day treatment, vs undifferentiated or randomly differentiated cells
Procedure: Total RNA was isolated from the cells using the RNeasy Kit (Qiagen, Hilden, Germany). Briefly, the cells were lysed in Qiazol (Qiagen), the hydrophilic phase was loaded onto RNA spin columns, and RNA was then prepared as instructed. cDNA synthesis was performed with random hexamer primers and 2 μg of the isolated total RNA following the manufacturer’s instructions. 10–20 ng of cDNA was then loaded in each well of a 384-well plate and specific primers were mixed with the GoTaq® PCR master mix according to the manufacturers’ instructions. Primer sequences were (5’-3’): T fw: […], rev: […], Nanog fw: […], rev: […], and Pou5f1 fw: […], rev: […]. Each qPCR amplification was performed in triplicates and the gathered data were normalized with qBasePlus (Biogazelle, Zwijnaarde, Belgium) against the housekeeping genes G6pdx, Tbp, and Tuba1a[10].

Brachyury = assay: Immunofluorescence staining of Brachyury in ES-D3 cells; format: cell-based, mouse; settings: for saturation of the concentration-response curve, Brachyury-positive cells: 0-10 μM CHIR-99021 or 0-2.5 μM CHIR-98014; for EC50: read-out: EC50 (Brachyury-positive cells)
Procedure: as §3, with “The following primary antibodies were used: anti-Oct3/4 (sc-5279, Santa Cruz Biotechnology, Heidelberg, Germany) and anti-Brachyury (AF2085, R&D Systems, Minneapolis, MN, USA).” left out

GSK3 = settings: cell-free system; cited from earlier work
[3] = ES-D3, 5 μM, three day treatment

Molecule | toxicity (in words) (ES-CCE cells) | viability reduced by (ES-D3 cells; ES-D3, 1 μM) | IC50 (ES-D3 cells) | activation of the Wnt/beta-catenin pathway (luminescence signal) (Wnt/beta-catenin pathway [1]; ES-D3, 5 μM) | activation of the Wnt/beta-catenin pathway (luminescence signal) (Wnt/beta-catenin pathway [2]; 5 μM) | viability reduced by (ES-D3 cells; ES-D3, 2.5 μM) | viability reduced by (ES-D3 cells; ES-D3, 5 μM) | viability reduced by (ES-D3 cells; ES-D3, 7.5 μM) | viability reduced by (ES-D3 cells; ES-D3, 10 μM) | IC50 (ES-D3 cells; Mus musculus, 72 h) | T gene expression induction (T gene; ES-D3, 5 μM) | saturation of the concentration-response curve, Brachyury-positive cells (Brachyury; ES-D3, three day treatment) | also measured
O=C1Nc2cc(Br)ccc2/C1=C1/Nc2ccccc2/C1=N\O [BIO] | strongly cytotoxic | 83.5% | 480 nM |  |  |  |  |  |  |  |  |  | cells positive for Oct3/4 (Oct3/4; ES-D3, 0.5 μM): almost all cells were positive for Oct3/4; activation of the Wnt/beta-catenin pathway (luminescence signal) (Wnt/beta-catenin pathway [1]; ES-D3, 0.5 μM): did not result in a robust activation of the Wnt/beta-catenin pathway above controls; activation of the Wnt/beta-catenin pathway (luminescence signal) (Wnt/beta-catenin pathway [2]; 0.5 μM): comparable to that of negative or positive controls; viability reduced by (ES-D3 cells; ES-D3, 0.25 μM): 25.7%; viability reduced by (ES-D3 cells; ES-D3, 0.5 μM): 58.7%; viability reduced by (ES-D3 cells; ES-D3, 0.75 μM): 68.7%; T gene expression induction (T gene; ES-D3, 0.5 μM): up to 300 fold; Brachyury-positive cells (Brachyury; ES-D3, 0.5 μM, three day treatment): almost no Brachyury-positive cells
Cc1c[nH]c(-c2cnc(NCCNc3ccc(C#N)cn3)nc2-c2ccc(Cl)cc2Cl)n1 [CHIR-99021] | smallest reduction of the viability |  |  | significant activation of the Wnt/beta-catenin pathway | only a significant increase at 72 h | 24.7% | 56.3% | 61.9% | 69.2% | 4900 nM | up to 2,500 fold | 60% | selectivity as GSK3 inhibitor (GSK3): most selective GSK3 inhibitor; Brachyury-positive cells (Brachyury; [3]): around 43%; EC50 (Brachyury; Mus musculus, 72 h): 3190 nM
Cn1cc(C2=C(c3ccc(Cl)cc3Cl)C(=O)NC2=O)c2ccccc21 [SB-216763] | smallest reduction of the viability | 1.7% |  | significantly increased compared to control cells but not to Wnt3a-incubated cells | comparable to that of negative or positive controls | 29.8% | 55.6% | 56.1% | 57.2% | 5700 nM | up to 300 fold |  | cells positive for Oct3/4 (Oct3/4; ES-D3, 5 μM): all cells were positive for Oct3/4; cells double-positive for Brachyury and Oct3/4 (Brachyury; [3]): ~ 3%
CHIR-98014 |  | 52% | 1100 nM |  |  |  |  |  |  |  |  | 50% | activation of the Wnt/beta-catenin pathway (luminescence signal) (Wnt/beta-catenin pathway [1]; ES-D3, 1 μM): significant activation of the Wnt/beta-catenin pathway; activation of the Wnt/beta-catenin pathway (luminescence signal) (Wnt/beta-catenin pathway [2]; 1 μM): significant increase of Wnt-signaling after 48 and 72 h; T gene expression induction (T gene; ES-D3, 1 μM): up to 2,500 fold; Brachyury-positive cells (Brachyury; ES-D3, 1 μM, three day treatment): ~50%; EC50 (Brachyury; ES-D3, three day treatment, counting of stained cells): 320 nM
